These results are taken from US12679855B2, “Inhibitors of the enzyme enolase for precision oncology” (Board of Regents, The University of Texas System, priority 2019, dated 2026).

Several values for one entry are separate records, joined by “and”; a condition that tells them apart may be missing. Equal entries are not always repeated. Where two headings read alike, the source gives them in different places.

The nature of series [1]: Human plasma stability assay (31P NMR). Type of series: in vitro ADME. The procedure: VCY17 (left) and POMHEX (right) were prepared at 1.5 mM and added to human plasma in an NMR tube with 10% D2O for signal lock. […] As expected, emergence of the second peak after 1 h is due to hydrolysis of the acetyl-protected hydroxamate; the nitroimidazole moiety remains attached (mono-ester phosphonates always show ^31P-chemical shifts <20 ppm); intact phosphoramidate mixed ester was verified by ^31P-^1H HSQC showing resonance with protons at ~5 ppm (—CH2—O—P) and 4 ppm (—CH2—NH—P). Note that VCY17 and de-acetylated VCY17 can come out as doublets: this is because two chiral centers (Phosphorus and C1) yield cis/trans diasteromers.
VCY13 (FIG. 20A) and VCY31 (FIG. 20B) are thioesterase-labile phosphonoamidates. ENO1-deleted (D423, red), ENO1-isogenically rescued (D423 ENO1, blue), and ENO1-WT (LN319, grey) cells were treated with either VCY13 or VCY31 for 5 days. […] (FIG. 20B) VCY31 is a structurally similar pro-drug that uses 2-picolylamine, rather than benzylamine, as a second pro-drug leave group. […] 4 mM VCY31 was dissolved in 80% human plasma, 20% D2O and monitored by ^31P NMR (121 MHz) for 15 hours. Intact VCY31 has a ^31P NMR shift of 33 ppm. Hydrolysis of the thioester begins to occur after 2 hours, as indicated by the emergence of a peak at ~16 ppm.
Human plasma stability assay. POMHEX and VCY17 (1.5 mM) were added to human plasma (Sigma #P9523) in an NMR tube with 10% D2O for signal lock. ^31P NMR measurements (31P CPD, 1000 transients) were conducted every 30 minutes on the first day and every 24 hours, for 4 days afterwards.

For series [2], the system named is D423 (ENO1-deleted) glioma cells. Description: Cell proliferation assay (crystal violet) in ENO1-deleted glioma cells. Type of series: cell-based. The following applies: 4 days.
A short description of series [3]: Plasma and organ levels after injection of POMHEX in mice. The format is in vivo, mouse. The procedure: (§1) FIGS. 3A-3D show the ex-vivo half-life of POMHEX in biological fluids may limit its clinical utility. (FIG. 3A) Ex-vivo half-life of POMHEX in biological fluids. POMHEX has a half-life of ~30 seconds in mouse plasma. The degradation may be prevented by heat inactivation or de-proteinatization with acetonitrile. […] (FIG. 3B) Plasma concentration of HEX and HemiPOMHEX following a single intravenous injection of POMHEX, as a function of time. Mice were injected IV with 10 mg/kg POMHEX and sacrificed at the indicated time points. Each data point represents a single animal. Note, POMHEX itself was below the detection limit (100 nM) even at the earliest time point. It is believed that this may not be reflective of the physiological state as separation of plasma from hematocrit is required for the measurements, which adds approximately 6 minutes of processing time during which POMHEX may be degraded to HemiPOMHEX. (FIG. 3C) The results of the same experiment but performed with an intraperitoneal injection of POMHEX, at a dose of 40 mg/kg. (FIG. 3D) Quantification of POMHEX and its metabolites in mouse organs 24 hrs. after a single intravenous injection of 10 mg/kg POMHEX.
FIGS. 16A-16C show the ex-vivo half-life of POMHEX in biological fluids limits its clinical utility. […] Lower levels of carboxylesterase in human blood results in a longer half-life of POMHEX. (FIG. 16B) Dramatically higher drug exposure in non-human primates as compared to mice following IV injections of POMHEX. Mice (n=3; pooled) and monkeys (n=3; pooled) were injected IV with POMHEX at 10 mg/kg and 2.5 mg/kg, respectively. […] POMHEX was undetectable (<50 nM) even at the earliest time point, in both monkey and mouse experiments; at 98 nM, POMHEX was detectable 1-minute post-injection, but at no time thereafter. […] HEX and HemiPOMHEX were not measured at concentrations higher than 10 mg/kg due to the hazards associated with the derivatization agent, trimethylsilyl-diazomethane in hexane (TMS-DAM). (FIG. 16C) Schematic of POMHEX in circulation when administered IP or IV in mice. […]

Series [4] concerns U343 glioma cell line (ENO1-heterozygously deleted). Description: Enolase inhibitor sensitivity (crystal violet), ENO1-heterozygously deleted U343 cells. The format is cell-based. The conditions noted are these: DMEM 10% FBS, terminal cell density by crystal violet after 7 days. The procedure:
(§2) Enolase inhibitor sensitivity experiments were performed, using DMEM containing 10% FBS cell culture media. IC50 (expressed in nM) were calculated based on terminal cell density measured by crystal violet after 7 days of growth. […] Left table: POMHEX. Middle table: HEX. Right table: Ratio of sensitivity to POMHEX versus HEX for each cell line.
(§3) (FIG. 19A) ENO1-deleted (D423, red), ENO1-isogenically rescued (D423 ENO1, blue), and ENO1-WT (LN319, grey) cells were treated POMHEX in RPMI media under the same experimental conditions used for NCI-60 screening. […] IC50 (expressed in nM) were calculated based on terminal cell density measured by crystal violet.
(§4) Cell proliferation assay.

Series [5] has as its system D502 glioma cell line (ENO1-heterozygously deleted). Description: Enolase inhibitor sensitivity (crystal violet), ENO1-heterozygously deleted D502 cells. Type of series: cell-based. The following applies: DMEM 10% FBS, terminal cell density by crystal violet after 7 days. The procedure: as §2, §3, §4
Series [6] can be described thus: Ex-vivo stability in human blood. The format is in vitro ADME. The procedure:
as §1, with “(FIG. 3C) The results of the same experiment but performed with an intraperitoneal injection of POMHEX, at a dose of 40 mg/kg.” left out
FIGS. 16A-16C show the ex-vivo half-life of POMHEX in biological fluids limits its clinical utility. […] HEX and HemiPOMHEX were not measured at concentrations higher than 10 mg/kg due to the hazards associated with the derivatization agent, trimethylsilyl-diazomethane in hexane (TMS-DAM). […]

Series [7] is described as follows: Plasma levels after IV injection of POMHEX in monkeys. Type of series: in vivo, monkey. The procedure: FIGS. 16A-16C show the ex-vivo half-life of POMHEX in biological fluids limits its clinical utility. […] Lower levels of carboxylesterase in human blood results in a longer half-life of POMHEX. (FIG. 16B) Dramatically higher drug exposure in non-human primates as compared to mice following IV injections of POMHEX. Mice (n=3; pooled) and monkeys (n=3; pooled) were injected IV with POMHEX at 10 mg/kg and 2.5 mg/kg, respectively. […] POMHEX was undetectable (<50 nM) even at the earliest time point, in both monkey and mouse experiments; at 98 nM, POMHEX was detectable 1-minute post-injection, but at no time thereafter. […] HEX and HemiPOMHEX were not measured at concentrations higher than 10 mg/kg due to the hazards associated with the derivatization agent, trimethylsilyl-diazomethane in hexane (TMS-DAM). (FIG. 16C) Schematic of POMHEX in circulation when administered IP or IV in mice. Due to high levels of plasma carboxylesterase, a gradient decrease in POMHEX away from the site of injection is accompanied by a concurrent increase in HemiPOMHEX.

Series [8] has as its system glioma cell lines with different ENO1-deletion status. Description: Enolase inhibitor sensitivity across glioma cell lines. The format is cell-based. The procedure:
as §2, §3

As to `CC(C)(C)C(=O)OCOP(=O)(OCOC(=O)C(C)(C)C)C1CCCN(O)C1=O` (stereo not shown) [POMHEX], the “time of hydrolysis to HemiPOMHEX in human plasma” value in series [1] (1.5 mM, human plasma with 10% D2O, 31P NMR) is given as “less than 1 h”. Besides, in series [1] (FIG. 15), the “longevity of intact POMHEX” value was found to be 2 h. The IC50 (in general, the concentration needed to halve the response being measured) in series [2] (1% O2, read-out: IC50 for D423 ENO1-homozygously deleted glioma cells under 1% O2 hypoxia) was ~90 nM and 84 nM; in series [2] (normoxia (21% O2), read-out: IC50 for D423 ENO1-homozygously deleted glioma cells under normoxia) it was ~40 nM and 31 nM; in series [4], 559 nM; in series [5], 82 nM. Besides, the “potency decrease under 1% O2” value in series [2] (1% O2 versus 21% O2) is recorded as ~ 2.5 fold. Besides, the “level in mouse organs” value in series [3] (24 hrs. after a single intravenous injection of 10 mg/kg POMHEX) is “below the quantification limit (BQL)”. Further, the “plasma concentration of POMHEX, mice” value in series [3] (IV 10 mg/kg, even at the earliest time point, 10 mg/kg) is < 100 nM and < 50 nM. The “stability in human blood relative to mouse plasma” value in series [6] was “at least 20 times”. Besides, in series [7] (1-minute post-injection, species not stated), the “plasma concentration of POMHEX 1-minute post-injection” value came out at 98 nM. In addition, the “potentially higher toxicity in monkey” value in series [7] (IV 2.5 mg/kg) was “did not materialize”. Moreover, the “plasma concentration of POMHEX, monkeys” value in series [7] (IV 2.5 mg/kg, even at the earliest time point) is given as below 50 nM. For the same molecule, in series [8], the “specificity towards ENO1-heterozygous deleted cells compared to normal tissue” value was found to be 10 fold. The “sensitivity greater in RPMI as compared to DMEM media” value in series [8] (D423, D423 ENO1, LN319 cells, NCI-60 screening conditions) is recorded as ~ 3 fold. Also, the “potency of POMHEX greater than HEX, on average” value in series [8] (average across glioma cell lines) was ~ 75 fold.
